Measured values published in patent publication US5352667A, “Non-peptidic surrogates of the Arg-Gly-Asp sequence and pharmaceutical compositions comprising them” (priority 1991, dated 1994).

Columns and labels:
[1] = system: CD4^+ T cell adhesion to LN; experiment: Inhibition of activated CD4+ T cell adhesion to laminin (LN); type: cell-based, human; details: for % inhibition of adhesion of activated CD4^+ T cell to LN / % Adhesion of activated CD4^+ T cell to LN: 0.2 mM peptides and surrogates, mAb anti-CD29 1/200, anti-VLA5 1/400 diluted; for % inhibition of adhesion of activated CD4^+ T cell to LN: * P<0.05; for % Adhesion of activated CD4^+ T cell to LN: none 55 ± 5
Protocol: To examine the adhesive properties of the T cells, 1 μg/50 μl/well of either fibronectin (FN) (Sigma), the 120 kD cell attachment fragment of FN (Telios Pharm. Inc. San Diego, CA), or laminin (LN) (Sigma), were added to 96-flat bottom microtiter-wells for 12 h. Unbound proteins were then washed away and remaining binding sites were blocked with 0.1% bovine serum albumin (BSA) added to the wells for 2 h and washed. CD4+T cells were purified from peripheral blood mononuclear leukocytes obtained from healthy human donors. The mononuclear cells were isolated using a Ficoll gradient, washed and incubated in RPMI supplemented with 10% fetal calf serum (FCS) and antibiotics in petri dishes at 37° C. humidified CO2 incubator. After 2 h, the non-adherent cells were isolated and applied on nylon-wool columns (1.5 h). CD4^+ T cells were then negatively selected by exposure of the cells to a cocktail of anti-CD8, CD19, and CD14 monoclonal antibodies (mAb) conjugated to magnetic-beads (Advanced Magnetics, MA). Unbound cells were recovered and their phenotype was examined. Purity of the CD4^+ T cells was always greater than 92% as determined by FACScan.
The purified CD4^+ T cells were radioactively labeled with ^51 [Cr](New England Nuclear) in RPMI +20% FCS for 2 h and washed. The cells were counted and seeded (0.2×10^5 cells) on the precoated microtiter wells in the presence or the absence of the various inhibitors. Coating was made either with FN, the 120 kD cell-attachment fragment of FN or with control adhesive protein laminin (LN). The inhibitors were various surrogates according to the invention, other test molecules or mAb. After 30 min incubation (in […] CO2 -- humidified incubator) the T cells were activated by 10 ng/ml phorbol myristate acetate (PMA) and the percent of T cells attached to the protein substrates was measured. Unbound cells were washed away after 20-30 min, the bound cells were lysed and their radioactivity was measured using radioactive counter. The amount of the radioactivity of the cell lysates represent the matrix-adherent cells and percent binding was calculated in comparison to the total radioactivity added to the wells. Activated T cell adhesion to control wells or to wells coated with BSA was always 2-5%; the level of adhesion of the non-activated T cells was always below 5%. Where indicated, 1/200 diluted mAb anti-CD29 (anti-β1 mAb Serotec, GB), or 1/400 diluted anti-VLA5 (the β1α5 FN-integrin receptor) mAb (Telios Pharm. Inc. San Diego), or 0.2 mM of RGD, GRGDSPK or GRGESP peptides (Sigma) were used. The tested non-peptidic surrogates, 0.2 mM in PBS, were used to pretreat the T cells for 15 min before seeding the cells *, P<0.05. The results shown in Tables 1A, 1B and 1C represent data obtained from several experiments that produced essentially similar results.
The four RGD surrogates, AC-4.

[2] = system: B16-melanoma cells adhesion to FN; experiment: Inhibition of B16-melanoma cell adhesion to FN; type: cell-based, murine; details: for % inhibition of adhesion of B16-melanoma cells to FN / % Adhesion of B16-melanoma cells to FN: surrogates 0.2 mM; for % inhibition of adhesion of B16-melanoma cells to FN: * P<0.05; for % Adhesion of B16-melanoma cells to FN: none 75 ± 5; for B-16 melanoma cell adhesion to FN, in words: Table 2A
Protocol: (§1) To examine the adhesive properties of tumor cells, 1 μg/50μ/well of FN or 0.3μg/well of VN were added to 96-flat bottom microtiter wells for 12 h. Unbound proteins were then washed away and remaining binding sites were blocked with 0.1% BSA added to the wells for 2 h and washed. Murine B16-melanoma F-1 cells were metabolically labeled with ^35 S-methionine (New England Nuclear) for 2 h, chased for 18 h and extensively washed. The cell suspension was resuspened in RPMI supplemented with 1% BSA containing 1 mM CaCl2 and MgCl2. Tumor cell adhesion to control wells or to wells coated with BSA was always 2-5%. The tested non-peptidic surrogates, 0.2 mM in PBS, were used to pretreat the tumor cells for 15 min before seeding the cells *, P<0.05.
(§2) In a first series of experiments, the potential inhibitory action of the RGD surrogate SF-6,5 on adhesion of B16 melanoma cells to FN or VN was compared to that of the RGE surrogate SF-6,6 and to that of RGD, GRGDSPK and GRGESP peptides.
In a further set of experiments, the inhibitory activity of the RGD surrogates SF-6,5 and NS-11 on the adhesion of B16 murine melanoma cells to FN was compared to that of the GRGDSP peptide.

[3] = system: B16-melanoma cells adhesion to VN; experiment: Inhibition of B16-melanoma cell adhesion to VN; type: cell-based, murine; details: for % inhibition of adhesion of B16-melanoma cells to VN / % Adhesion of B16-melanoma cells to VN: surrogates 0.2 mM; for % inhibition of adhesion of B16-melanoma cells to VN: * P<0.05; for % Adhesion of B16-melanoma cells to VN: none 68 ± 5
Protocol: as §1, §2

[4] = system: tumor cell-induced metastases; experiment: Inhibition of tumor cell-induced metastases in C57BL/6 mice; type: in vivo; details: i.v. daily, 25μg of SF-6,5 per mouse, after induction of metastasis
GPIIb-IIIa = GPIIb-IIIa (Homo sapiens, UniProt P05106+P08514); experiment: Inhibition of the binding capacity of anti-GPIIb-IIIa mAb (PAC-1) to platelets; details: FIG. 6, 0-500μM, ADP-activated platelets
Protocol: To investigate whether the RGD surrogates actually bind to the GPIIb-IIIa integrin, their ability to compete with a monoclonal antibody (mAb) specific to GPIIb-IIIa was investigated. This mAb, designated PAC-1, specific for the activated receptor, binds GPIIb-IIIa in an RGD-dependent manner (Taub, R. et al. (1989) J.Biol.Chem. 264: 259).
ADP-activated platelets were incubated with FITC-conjugated PAC-1 mAb in the presence of various peptidic and non-peptidic compounds, as follows: the platelet rich plasma were gel-filtrated into modified Tryode's solution (137.5 mM Nacl, 4 mN Hepes, 2.6 mM KCl,1 mM MgCl2, 3.3 mM NaH2 PO4, 5.6 mM glucose at pH 7.4) containing 350μg/ml BSA (which was used as the incubation buffer in further steps; Tryode's/BSA). The final count in the cell assays was 2×10^6 per ml. The cells were then activated with 10μM ADP and epinephrine. To examine RGD peptides and related analogues as competitors for the binding capacity of the PAC-1 mAb to platelets, the cells were incubated in 50μl Tryode's/BSA supplemented with 1 mM CaCl2 for 30 min in 25° C., in the presence of 0-500μM peptides or peptide-analogues with 10μg/ml FITC labeled PAC-1. The fluorescence profile of the cells was determined using FACScan (Beckton Dickenson) at 488 nm. In FIG. 6: GRGDSPK (empty circles), GRGESP (filled triangles), compound SF-6,5 (empty triangles), compound SF-6,6 (filled circles) (the data shown here represent results obtained in one of three experiments which were essentially identical).

[5] = system: B16-melanoma cells adhesion to FN; experiment: Inhibition of B16-melanoma cell adhesion to FN; type: cell-based, murine

Compound | T cell adhesion to LN, in words ([1]; 0.2 mM) | % inhibition of adhesion of activated CD4^+ T cell to LN [1] [%] | % Adhesion of activated CD4^+ T cell to LN [1] [%] | % inhibition of adhesion of B16-melanoma cells to FN [2] [%] | % Adhesion of B16-melanoma cells to FN [2] [%] | % inhibition of adhesion of B16-melanoma cells to VN [3] [%] | % Adhesion of B16-melanoma cells to VN [3] [%] | Inhibition of tumor cell-induced metastases [4] | Inhibition of PAC-1 binding to platelets, in words (GPIIb-IIIa) | B-16 melanoma cell adhesion to FN, in words [2] | B-16 melanoma cell adhesion to VN, in words ([3]; Table 2A) | % Adhesion of activated tumor cells to FN: (% inhibition) ([5]; Conc. 25 μg. ml) [%] | % Adhesion of activated tumor cells to FN: (% inhibition) ([5]; Conc. 50 μg. ml) [%] | % Adhesion of activated tumor cells to FN: (% inhibition) ([5]; Conc. 100 μg. ml) [%] | % Adhesion of activated tumor cells to FN: (% inhibition) ([5]; Conc. 200 μg. ml) [%]
N=C(N)NCCCCCC(=O)NCCCCCC(=O)O [SF-6,6] | did not inhibit T cell adhesion to both FN and LN | 0 | 52 ± 6 | 0 | 75 ± 9 | 0 | 70 ± 7 | failed to inhibit metastases | failed to inhibit PAC-1 binding to the platelet integrin receptor | – | – | – | – | – | –
N=C(N)NCCCCCC(=O)NCCCCC(=O)O [SF-6,5, 6-aza-7-oxo-12-quanidino-dodecanoic acid] | – | 0 | 55 ± 6 | 55 | 34 ± 4 | 42 | 40 ± 5 | inhibition of tumor cell-induced metastases | inhibited PAC-1 staining of the cells in a dose-dependent manner | inhibited tumor cell adhesion to both FN and VN | inhibited tumor cell adhesion to both FN and VN | 10 | 20 | 30 | 45
GRGDSPK [RGD peptide (Sigma)] | – | 0 | 53 ± 4 | 80 | 15 ± 4 | 86 | 10 ± 2 | – | inhibited PAC-1 staining of the cells in a dose-dependent manner | found to be inhibited by the GRGDSPK peptide | – | – | – | – | –
